# Experimental data as given in patent US11780826B2 (Amgen Inc., priority 2017, dated 2023).
# Test system: Bovine cardiac myofibrils
# Experiment: In vitro model of dose-dependent myofibril ATPase modulation (AC1.4, pyruvate kinase/lactate dehydrogenase-coupled ATPase assay at pCa25)
# Assay type: biochemical
# Settings: concentration at which ATPase activity was 1.4-fold higher than the bottom of the dose curve, mean of a minimum of two independent tests
# How it was run: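 Compound dilutions were premixed with myofibrils, coupling enzymes, EGTA and CaCl2, then the reaction was started with an equal volume carrying ATP (final 1 mM), NADH and PEP. ATP turnover was followed at 340 nm, and dose responses were fit to a four-parameter equation.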
row,Compound,AC1.4 [µM]
1,"N#CC1(c2cccc(C(=O)N3[C@@H](C(=O)N[C@@H](c4ccc(C(F)(F)F)cc4F)C4COC4)C[C@H]4C[C@H]43)c2)CC1 [Example 456, (1R,3R,5R)-2-(3-(1-cyanocyclopropyl)benzoyl)-N-((R)-(2-fluoro-4-(trifluoromethyl)phenyl)(3-oxetanyl)methyl)-2-azabicyclo[3.1.0]hexane-3-carboxamide]",1.882
2,"CS(=O)(=O)c1ccc(F)c(C(=O)N2CCC[C@@H]2C(=O)N[C@@H](c2ccc(C(F)(F)F)cc2F)C2CC2)c1F [Example 563, N-((R)-cyclopropyl(2-fluoro-4-(trifluoromethyl)phenyl)methyl)-1-(2,6-difluoro-3-(methylsulfonyl)benzoyl)-D-prolinamide]",2.8195
3,"O=C(NCc1ccc(C(F)(F)F)cc1)[C@H]1CCCN1C(=O)c1cccc(S(=O)(=O)N2CCC2)c1 [Example 486, 1-(3-(l-azetidinylsulfonyl)benzoyl)-N-(4-(trifluoromethyl)benzyl)-D-prolinamide]",2.202
4,"C[C@@H](NC(=O)[C@H]1CCCN1C(=O)[C@H]1CCCN(S(=O)(=O)N2CC(C#N)C2)C1)c1cccc(C(F)(F)F)c1 [Example 465, 1-(((3S)-1-((3-cyano-1-azetidinyl)sulfonyl)-3-piperidinyl)carbonyl)-N-((1R)-1-(3-(trifluoromethyl)phenyl)ethyl)-D-prolinamide]",1.9455
5,"C[C@@H](NC(=O)[C@H]1CCCN1C(=O)c1cccc(S(C)(=O)=O)c1)c1cc(F)c(Cl)cc1F [Example 636, N-((1R)-1-(4-chloro-2,5-difluorophenyl)ethyl)-1-(3-(methylsulfonyl)benzoyl)-D-prolinamide]",3.919
6,"N#CC1CN(S(=O)(=O)N2CCC[C@H](C(=O)N3CCC[C@@H]3C(=O)NC3CCc4ccccc43)C2)C1 (stereo partly drawn) [Example 442, (2R)-1-((S)-1-((3-cyanoazetidin-1-yl)sulfonyl)piperidine-3-carbonyl)-N-(2,3-dihydro-1H-inden-1-yl)pyrrolidine-2-carboxamide]",1.7305
7,"C[C@H](NC(=O)[C@H]1CCCN1C(=O)[C@H]1CCCN(S(=O)(=O)N2CC(C#N)C2)C1)c1ccc(C(F)(F)F)cc1 [Example 431, 1-(((3S)-1-((3-cyano-1-azetidinyl)sulfonyl)-3-piperidinyl)carbonyl)-N-((1S)-1-(4-(trifluoromethyl)phenyl)ethyl)-D-prolinamide]",1.6305
8,"O=C(NCc1ccc(C(F)(F)F)cc1F)[C@H]1CCCN1C(=O)[C@H]1CCCN(S(=O)(=O)N2CC(O)(C(F)F)C2)C1 [Example 296, 1-(((3S)-1-((3-(difluoromethyl)-3-hydroxy-1-azetidinyl)sulfonyl)-3-piperidinyl)carbonyl)-N-(2-fluoro-4-(trifluoromethyl)benzyl)-D-prolinamide]",0.7679
9,"N#CC1CN(S(=O)(=O)N2CCC[C@H](C(=O)N3CCC[C@@H]3C(=O)NCc3ccc(Cl)cc3)C2)C1 [Example 164, N-(4-chlorobenzyl)-1-(((3S)-1-((3-cyano-1-azetidinyl)sulfonyl)-3-piperidinyl)carbonyl)-D-prolinamide]",0.2785
10,"O=C(N[C@@H](c1ccc(C(F)(F)F)cc1F)C1CC1)[C@H]1C[C@H]2C[C@H]2N1C(=O)c1cccc(C(O)C(F)(F)F)c1 (stereo partly drawn) [Example 547, (1R,3R,5R)-N-((R)-cyclopropyl(2-fluoro-4-(trifluoromethyl)phenyl)methyl)-2-(3-(2,2,2-trifluoro-1-hydroxyethyl)benzoyl)-2-azabicyclo[3.1.0]hexane-3-carboxamide]",2.836
11,"O=C(NCc1ccc(C(F)(F)F)cc1)[C@H]1CCCN1C(=O)c1cccc(S(=O)(=O)N2CC[C@@H](O)C2)c1 [Example 560, 1-((3-(((3R)-3-hydroxy-1-pyrrolidinyl)sulfonyl)phenyl)carbonyl)-N-(4-(trifluoromethyl)benzyl)-D-prolinamide,1-((3-(((3S)-3-hydroxy-1-pyrrolidinyl)sulfonyl)phenyl)carbonyl)-N-(4-(trifluoromethyl)benzyl)-D-prolinamide]",2.9638
12,"CC[C@@H](NC(=O)[C@H]1CCCN1C(=O)[C@H]1CCCN(S(=O)(=O)N2CC(C#N)C2)C1)c1ccc(C(F)(F)F)cc1 [Example 17, 1-(((3S)-1-((3-cyano-1-azetidinyl)sulfonyl)-3-piperidinyl)carbonyl)-N-((1R)-1-(4-(trifluoromethyl)phenyl)propyl)-D-prolinamide]",0.02445
13,"CCc1ccnc(C(=O)N2[C@@H](C(=O)N[C@@H](c3cc(F)c(Cl)cc3F)C3COC3)C[C@H]3C[C@H]32)c1 [Example 555, (1R,3R,5R)-N-((R)-(4-chloro-2,5-difluorophenyl)(3-oxetanyl)methyl)-2-((4-ethyl-2-pyridinyl)carbonyl)-2-azabicyclo[3.1.0]hexane-3-carboxamide]",2.893
14,"Cc1ccc(CNC(=O)[C@H]2CCCN2C(=O)[C@H]2CCCN(S(=O)(=O)N3CC(C#N)C3)C2)cc1 [Example 243, 1-(((3S)-1-((3-cyano-1-azetidinyl)sulfonyl)-3-piperidinyl)carbonyl)-N-(4-methylbenzyl)-D-prolinamide]",0.5746
15,"CS(=O)(=O)c1cccc(C(=O)N2C=CC[C@@H]2C(=O)N[C@@H](c2ccc(C(F)(F)F)cc2F)C2CC2)c1 [Example 377, (2R)—N—((R)-cyclopropyl(2-fluoro-4-(trifluoromethyl)phenyl)methyl)-1-(3-(methylsulfonyl)benzoyl)-2,3-dihydro-1H-pyrrole-2-carboxamide]",1.216
16,"CN(C)S(=O)(=O)c1cccc(C(=O)N2CCC[C@@H]2C(=O)NCc2ccc(C(F)(F)F)cc2F)c1 [Example 459, 1-(3-(dimethylsulfamoyl)benzoyl)-N-(2-fluoro-4-(trifluoromethyl)benzyl)-D-prolinamide]",1.8995
17,"CCS(=O)(=O)c1cc(C(=O)N2[C@@H](C(=O)N[C@@H](c3cc(F)c(Cl)cc3F)C3CC3)C[C@H]3C[C@H]32)ccn1 [Example 389, (1R,3R,5R)-N-((R)-(4-chloro-2,5-difluorophenyl)(cyclopropyl)methyl)-2-((2-(ethylsulfonyl)-4-pyridinyl)carbonyl)-2-azabicyclo[3.1.0]hexane-3-carboxamide]",1.2325
18,"NS(=O)(=O)c1cccc(C(=O)N2C[C@@H](F)C[C@@H]2C(=O)N[C@@H](c2cc(F)c(Cl)cc2F)C2CC2)c1 [Example 280, (4S)-N-((R)-(4-chloro-2,5-difluorophenyl)(cyclopropyl)methyl)-4-fluoro-1-(3-sulfamoylbenzoyl)-D-prolinamide]",0.713

# More lines, now with the values ahead:
row,AC1.4 [µM],Compound
1,8.9725,"N#CC1CN(S(=O)(=O)N2CCN[C@H](C(=O)N3CCC[C@@H]3C(=O)NCc3cc(Cl)cc(Cl)c3)C2)C1 [Example 790, 1-(((2S)-4-((3-cyano-1-azetidinyl)sulfonyl)-2-piperazinyl)carbonyl)-N-(3,5-dichlorobenzyl)-D-prolinamide]"
2,8.9395,"COCC1CN(S(=O)(=O)N2CCC[C@H](C(=O)N3CCC[C@@H]3C(=O)NCc3ccc(C(F)(F)F)cc3)C2)C1 [Example 788, 1-(((3S)-1-((3-(methoxymethyl)-1-azetidinyl)sulfonyl)-3-piperidinyl)carbonyl)-N-(4-(trifluoromethyl)benzyl)-D-prolinamide]"
3,8.3695,"COc1ccc([C@H](NC(=O)[C@H]2CCCN2C(=O)[C@H]2CCCN(S(=O)(=O)N3CC(C#N)C3)C2)C(F)(F)F)cc1F [Example 776, 1-(((3S)-1-((3-cyano-1-azetidinyl)sulfonyl)-3-piperidinyl)carbonyl)-N-((1S)-2,2,2-trifluoro-1-(3-fluoro-4-methoxyphenyl)ethyl)-D-prolinamide]"
4,5.48,"N#CC1CN(S(=O)(=O)N2CCC[C@H](C(=O)N3CCC[C@H]3C(=O)NCc3cc(F)cc(F)c3)C2)C1 [Example 694, 1-(((3S)-1-((3-cyano-1-azetidinyl)sulfonyl)-3-piperidinyl)carbonyl)-N-(3,5-difluorobenzyl)-L-prolinamide]"
5,4.708,"O=C(N[C@@H](c1cc(F)c(Cl)cc1F)C1CC1)[C@H]1C[C@H]2C[C@H]2N1C(=O)c1cccc(C(F)(F)F)n1 [Example 667, (1R,3R,5R)-N-((R)-(4-chloro-2,5-difluorophenyl)(cyclopropyl)methyl)-2-((6-(trifluoromethyl)-2-pyridinyl)carbonyl)-2-azabicyclo[3.1.0]hexane-3-carboxamide]"
6,4.6765,"COc1ccc(S(C)(=O)=O)cc1C(=O)N1[C@@H](C(=O)N[C@@H](c2ccc(C(F)(F)F)cc2)C2COC2)C[C@H]2C[C@H]21 [Example 808, (1R,3R,5R)-2-(2-methoxy-5-(methylsulfonyl)benzoyl)-N-((R)-3-oxetanyl(4-(trifluoromethyl)phenyl)methyl)-2-azabicyclo[3.1.0]hexane-3-carboxamide]"
7,4.3367,"N#CC1CN(S(=O)(=O)c2cccc(C(=O)N3CCC[C@@H]3C(=O)NCc3ccc(C(F)(F)F)cn3)c2)C1 [Example 644, 1-((3-((3-cyano-1-azetidinyl)sulfonyl)phenyl)carbonyl)-N-((5-(trifluoromethyl)-2-pyridinyl)methyl)-D-prolinamide]"
8,8.1255,"COc1ccc(Cl)cc1CNC(=O)[C@H]1CCCN1C(=O)[C@H]1CCCN(S(=O)(=O)N2CC(C#N)C2)C1 [Example 770, N-(5-chloro-2-methoxybenzyl)-1-(((3S)-1-((3-cyano-1-azetidinyl)sulfonyl)-3-piperidinyl)carbonyl)-D-prolinamide]"
9,7.1325,"O=C(NCc1ccc(C(F)(F)F)cc1)[C@H]1CCCN1C(=O)[C@H]1CCCN(S(=O)(=O)N2CC(C3CCOC3)C2)C1 (stereo partly drawn) [Example 739, (2R)-1-((3S)-1-((3-(tetrahydrofuran-3-yl)azetidin-l-yl)sulfonyl)piperidine-3-carbonyl)-N-(4-(trifluoromethyl)benzyl)pyrrolidine-2-carboxamide]"
